This is an account of results in PubChem BioAssay (NCI).

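A five-concentration, 48-hour dose response in 96-well plates underlies each endpoint, interpolated linearly between surrounding concentrations. TGI is the concentration that stops growth completely.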

Assay in all cases: NCI-60 cell line screen, 48 h
The subject of experiment [1] is NCI-H460 lung.
For experiment [2], the system named is TK-10 renal.
Experiment [3] concerns OVCAR-8 ovarian.
Experiment [4] deals with SF-295 CNS.
Experiment [5] has as its system SN12C renal.
Experiment [6] deals with LOX IMVI melanoma.
In experiment [7] the test system is NCI-H522 lung.
The test system of experiment [8] is A498 renal.
Experiment [9] concerns MDA-MB-435.
Experiment [10] has as its system IGROV1 ovarian.
The test system of experiment [11] is HCT-15 colon.
Experiment [12] deals with MCF7 breast.
The subject of experiment [13] is MOLT-4 leukemia.
Experiment [14] concerns HOP-92 NSCLC.
The subject of experiment [15] is SK-MEL-2 melanoma.
Experiment [16] relates to CCRF-CEM leukemia.
The test system of experiment [17] is NCI/ADR-RES ovarian.
The test system of experiment [18] is SK-MEL-28 melanoma.
Experiment [19] has as its system K-562 leukemia.
In experiment [20] the test system is UACC-62 melanoma.

In the case of `C=CCc1[nH]c2c(OCc3ccccc3)cc(N(CC=C)C(C)=O)cc2c1C`, the TGI is 27.9 µM in [1]; 30 µM in experiment [2]; 27.4 µM in experiment [3]; 33.5 µM in [4]; 32 µM in [5]; 25 µM in experiment [6]. For the same molecule, the TGI in experiment [7] was determined as 26.5 µM; in experiment [8], 25 µM; in [9], 33.5 µM; in experiment [10], 28 µM; in experiment [11], 25.6 µM; in experiment [12], 24.9 µM. In addition, the TGI in experiment [13] was determined as 30.7 µM; in [14], 25.7 µM; in [15] it was 26.1 µM; in [16], 75.9 µM; in [17] it was 31 µM; in [18], 33.5 µM. In addition, the values for the TGI in [19] and in experiment [20] were > 100 µM and 26.9 µM, respectively.
For the molecule `Cc1ccc(S(=O)(=O)CN2C(=O)C(c3ccccc3)(c3ccccc3)C23OC(c2ccc(Cl)cc2)=CC3=O)cc1` (stereo not given), the TGI in [1], in [2], in [3], in [4], in experiment [5] and in [6] was > 10 µM each time. The TGI in experiment [7], in experiment [8], in experiment [9], in experiment [10], in experiment [11] and in experiment [12] was > 10 µM in each case. Besides, the TGI in experiment [13], in [14], in experiment [15], in experiment [16], in [17] and in [18] was > 10 µM in each case. The TGI in experiment [19] and in experiment [20] was > 10 µM in each case.
On to `C=C1CCCC2[C@](C)(CC3=C(Cl)C(=O)C=C(OC)C3=O)C(C)CC[C@]12C` (stereo not given in full), for which the TGI in [1] was 19.4 µM; in experiment [2] it was 11.6 µM; in [3] it was 9.78 µM; in [4], 14 µM; in experiment [5], 12.5 µM; in experiment [6], 4.23 µM. The TGI came to 3.18 µM in [7]; 16.2 µM in experiment [8]; 14.2 µM in [9]; 4.76 µM in [10]; 13.9 µM in experiment [11]; 6.18 µM in experiment [12]. Moreover, the TGI in [13] worked out at 6.99 µM; in experiment [14], 14.7 µM; in [15] it was 13.5 µM; in experiment [16], 11.6 µM; in [17], 33.2 µM; in experiment [18], 17 µM. The figures for the TGI in experiment [19] and in [20] were 13.1 µM and 12.7 µM, respectively.
`CCCCCC1CC=CC(=O)O1` (stereo not given): the TGI turned out to be 33.6 µM in [1]; 38.1 µM in experiment [2]; 22.2 µM in experiment [3]; 35.6 µM in experiment [4]; 21.2 µM in [5]; 25.1 µM in experiment [6]. For the same molecule, the TGI in experiment [7] was 9.71 µM; in experiment [8] it was > 100 µM; in experiment [9] it was 20.2 µM; in [10], 17.7 µM; in experiment [11], 21.9 µM; in [12], 40.3 µM. Also, the TGI was > 100 µM in experiment [13]; 37.7 µM in experiment [14]; 23.5 µM in [15]; 19.7 µM in experiment [16]; 25.6 µM in experiment [17]; 18.5 µM in experiment [18]. For the same molecule, the values for the TGI in experiment [19] and in experiment [20] were 42.7 µM and 25.3 µM, respectively.
Regarding `O=c1ccn(CC2(CO)CCCC2)c(=O)[nH]1`, the TGI in experiment [1], in experiment [2], in experiment [3], in experiment [4], in experiment [5] and in experiment [6] was > 100 µM each time. In addition, the TGI in [7], in experiment [8], in [9], in experiment [10], in [11] and in experiment [12] was > 100 µM in each case. Further, the TGI in [13], in experiment [14], in experiment [15], in [16], in experiment [17] and in [18] was > 100 µM each time. Further, the TGI in [19] and in experiment [20] was > 100 µM in each case.
In the case of `CC(=O)Nc1ccc(NS(=O)(=O)c2ccc3nc(C)n(NS(=O)(=O)c4ccc(NC(C)=O)cc4)c(=O)c3c2)cc1`, the TGI in experiment [1], in experiment [2], in experiment [3], in experiment [4], in experiment [5] and in experiment [6] was > 100 µM throughout. Also, the TGI in experiment [7], in experiment [8], in [9], in experiment [10], in [11] and in experiment [12] was > 100 µM throughout. The TGI in experiment [13], in experiment [14], in [15], in experiment [16], in experiment [17] and in experiment [18] was > 100 µM in each case. For the same molecule, the TGI in experiment [19] and in experiment [20] was > 100 µM in each case.
Turning to `Cc1sc2[nH]c(=O)oc(=O)c2c1C`, the TGI in experiment [1], in experiment [2], in experiment [3], in experiment [4], in experiment [5] and in [6] was > 100 µM throughout. The TGI in experiment [7] was > 83.1 µM; in experiment [8], > 100 µM; in experiment [9], > 100 µM; in [10], > 100 µM; in experiment [11] it was > 100 µM; in experiment [12] it was > 78.9 µM. For the same molecule, the TGI in experiment [13], in experiment [14], in [15], in [16], in experiment [17] and in experiment [18] was > 100 µM throughout. Also, the TGI in [19] and in experiment [20] was > 100 µM in each case.
